Measurements from US20220031680A1, “Donecopride As Neuroprotective Agent In the Treatment of Neurodegenerative Diseases” (priority 2018, published 2022).
Marks after values point to notes of the source that are not given here.

Test system: rat primary hippocampal neurons injured with Aβ 1-42
Assay: Number of synapses (PSD95/SYN overlap) in primary hippocampal neurons injured with Aβ1-42
Type: cell-based
Details: for Number of synapses (% of control): Aβ 1-42 (20 μM) in Table 5, 24 h; for number of synapses normalized by the number of neurons (formation of new synapses): Aβ 1-42 injured hippocampal neurons
Method: The hippocampal neurons were exposed with Aβ solutions (see below) after 17 days of culture. The Aβ1-42 preparation was done following the procedure described by Callizot et al. (2013) J. Neurosci. Res. 91706-716. Briefly, Aβ1-42 peptide was dissolved in the defined culture medium mentioned above, at an initial concentration of 40 μM. This solution was gently agitated for 3 days at 37° C. in the dark and immediately used after being properly diluted in culture medium to the concentrations used (20 μM (plate 1) or 2.5 μM (plate 2) corresponding to 2 μM or 0.25 μM of oligomers (AβO) respectively).
Donecopride fumarate was solved in culture medium and preincubated 1 h before Aβ application. Aβ1-42 preparation was added to a final concentration of 20 or 2.5 μM (=2 μM or 0.25 μM of AβO, evaluated by automatic Western Blot) diluted in control medium in presence of Donecopride.
24 hours after intoxication, the hippocampal neurons were fixed by a cold solution of ethanol (95%) and acetic acid (5%) for 5 min at −20° C. After permeabilization with 0.1% of saponin, cells were incubated for 2 h with:
a) mouse monoclonal antibody anti post synaptic density 95 kDa (PSD95) at a dilution of 1/100 in PBS containing 1% fetal calf serum and 0.1% of saponin.
b) Rabbit polyclonal antibody anti-synaptophysin (SYN) at the dilution of 1/100 in PBS containing 1% fetal calf serum and 0.1% of saponin.
For each condition, 40 pictures per well were taken using ImageXpress (Molecular Devices) with 40× magnification. All images were taken with the same acquisition parameters.
Synapses evaluation was performed automatically by using Custom module editor (Molecular Devices).
The following endpoints were assessed: • Total number of synapses (overlapping between PSD95/SYN).
To assess the formation of synapses, the distribution of PSD-95, a post-synaptic marker, and synaptophysin, a pre-synaptic marker, was studied. A structure positive for both PD-95 and synaptophysin staining was considered as a synapse.
Injury: The hippocampal neurons were exposed with Aβ solutions (see below) after 17 days of culture. The Aβ1-42 preparation was done following the procedure described by Callizot et al. (2013) J. Neurosci. Res. 91:706-716. The batch number of the Aβ1-42 used in this study contains 10% of oligomers (quantification by WB as performed in Combes et al. (2015) J. Neurosci. Res. 93:633-643). Briefly, Aβ1-42 peptide was dissolved in the defined culture medium mentioned above, at an initial concentration of 40 μmol/1. This solution was gently agitated for 3 days at 37° C. in the dark and immediately used after being properly diluted in culture medium to the concentrations used (20 μmol/l or 2.5 μmol/l corresponding to 2 μmol/l or 0.25 μmol/l of oligomers (AβO) respectively). Aβ1-42 preparation was added to a final concentration of 20 or 2.5 μmol/l (respectively 2 μmol/l or 0.25 μmol/l of AβO, determined by automatic WB) diluted in control medium in presence of the compounds.
Immunostaining: PSD95 and SYN—After fixation and permeabilization, cells were incubated for 2 hours with: • mouse monoclonal antibody anti post synaptic density 95 kDa (PSD95) at dilution of 1/200 in PBS containing 1% fetal calf serum and 0.1% saponin; • rabbit polyclonal antibody anti-synaptophysin (SYN) at the dilution of 1/100 in PBS containing 1% fetal calf serum and 0.1% saponin.
For each condition, 40 pictures per well were taken using ImageXpress (Molecular Devices) with 40× magnification. All images were taken with the same conditions. Synapses evaluation were performed automatically by using Custom Module Editor® (Molecular Devices). The following endpoints were assessed: • Number of synapses (overlapping between PSD95/SYN)

| Structure (SMILES) | Number of synapses (% of control) (1 μM) | number of synapses normalized by the number of neurons (formation of new synapses) (Donepezil group (1 μM)) | concentration up to which the effect on synapses is significant (Aβ1-42 injured hippocampal neurons, Example 5 (FIG. 12)) | Number of synapses (% of control) (1 nM) | Number of synapses (% of control) (5 nM) | Number of synapses (% of control) (10 nM) | Number of synapses (% of control) (50 nM) | Number of synapses (% of control) (100 nM) | Number of synapses (% of control) (500 nM) | number of synapses normalized by the number of neurons (formation of new synapses) (500 nM) |
| --- | --- | --- | --- | --- | --- | --- | --- | --- | --- | --- |
| COc1cc2c(cc1OC)C(=O)C(CC1CCN(Cc3ccccc3)CC1)C2 (centres unmarked) [Donepezil, reference compound] | 88* % of control | no effect | – | – | – | – | – | – | – | – |
| COc1cc(N)c(F)cc1C(=O)CCC1CCN(CC2CCCCCC2)CC1 [MR36014] | – | – | ≤ 50 µM | – | – | – | – | – | – | – |
| COc1cc(N)c(Cl)cc1C(=O)CCC1CCN(CC2CCCCC2)CC1 [Donecopride] | 85* % of control | – | – | 69 % of control | 83* % of control | 87* % of control | 91* % of control | 93* % of control | 94* % of control | significantly promoted the formation of new synapses |
